Experimental data: PubChem BioAssay AID2060910 (Molecular Pharmacology Branch, DTP, NCI, 2025)

Tested on: 242566-281-R-J2-PDC complex spheroid viability
Test: Anticancer human tumor 242566-281-R-J2-PDC patient-derived pancreatic carcinoma cell line growth inhibition [RAS]
Details: for IC50: curve of first compound; for viability, T/C: stronger effect = lower value
Method in brief: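 Tumour cells grown as complex spheroids with HUVEC endothelial cells and mesenchymal stem cells, treated with RAS pathway inhibitor combinations. Each agent spans half-log steps from near clinical Cmax, or 10 microM where Cmax is unknown.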

[1] = second compound 0.0316 µM, first compound 0.00316 µM
[2] = second compound 0.0316 µM, first compound 0.01 µM
[3] = second compound 0.0316 µM, first compound 0.0316 µM
[4] = second compound 0.0316 µM, first compound 0.1 µM
[5] = second compound 0.0316 µM, first compound 0.316 µM
[6] = second compound 0.0316 µM, first compound 1 µM
[7] = second compound 0.1 µM, first compound 0.00316 µM
[8] = second compound 0.1 µM, first compound 0.01 µM
[9] = second compound 0.1 µM, first compound 0.0316 µM
[10] = second compound 0.1 µM, first compound 0.1 µM
[11] = second compound 0.1 µM, first compound 0.316 µM
[12] = second compound 0.1 µM, first compound 1 µM
[13] = second compound 0.316 µM, first compound 0.00316 µM
[14] = second compound 0.316 µM, first compound 0.01 µM
[15] = second compound 0.316 µM, first compound 0.0316 µM
[16] = second compound 0.316 µM, first compound 0.1 µM
[17] = second compound 0.316 µM, first compound 0.316 µM
[18] = second compound 0.316 µM, first compound 1 µM
[19] = second compound 1 µM, first compound 0.00316 µM
[20] = second compound 1 µM, first compound 0.01 µM
[21] = second compound 1 µM, first compound 0.0316 µM
[22] = second compound 1 µM, first compound 0.1 µM
[23] = second compound 1 µM, first compound 0.316 µM
[24] = second compound 1 µM, first compound 1 µM
[25] = second compound 3.16 µM, first compound 0.00316 µM
[26] = second compound 3.16 µM, first compound 0.01 µM
[27] = second compound 3.16 µM, first compound 0.0316 µM
[28] = second compound 3.16 µM, first compound 0.1 µM
[29] = second compound 3.16 µM, first compound 0.316 µM
[30] = second compound 3.16 µM, first compound 1 µM
[31] = second compound 10 µM, first compound 0.00316 µM
[32] = second compound 10 µM, first compound 0.01 µM
[33] = second compound 10 µM, first compound 0.0316 µM
[34] = second compound 10 µM, first compound 0.1 µM
[35] = second compound 10 µM, first compound 0.316 µM
[36] = second compound 10 µM, first compound 1 µM
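Further: spheroids exposed to compound for 7 days before readout.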
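Wherever viability, T/C is given: 100% = DMSO vehicle control wells.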

For `CCc1c2c(nc3ccc(O)cc13)-c1cc3c(c(=O)n1C2)COC(=O)[C@]3(O)CC` + C#Cc1c(F)ccc2cc(O)cc(-c3ncc4c(N5CC6CCC(C5)N6)nc(OCC56CCCN5CC(F)C6)nc4c3F)c12, the IC50 (second compound 0.0316 µM) was 31.6 nM, the IC50 (second compound 0.1 µM) was 24.1 nM and the IC50 (second compound 0.316 µM) was 15.1 nM. It also gave an IC50 (second compound 1 µM) of 6.64 nM, an IC50 (second compound 3.16 µM) of 3.3 nM and an IC50 (second compound 10 µM) of 3.46 nM. The viability, T/C (second compound 0.0316 µM, first compound 0.000949 µM) was 100%, the viability, T/C (second compound 0.0316 µM, first compound 0.003 µM) was 97.3% and the viability, T/C (second compound 0.0316 µM, first compound 0.00949 µM) was 76.1%. The viability, T/C (second compound 0.0316 µM, first compound 0.03 µM) was 51.3%, the viability, T/C (second compound 0.0316 µM, first compound 0.0949 µM) was 29.3% and the viability, T/C (second compound 0.0316 µM, first compound 0.3 µM) was 17.7%. The viability, T/C (second compound 0.1 µM, first compound 0.000949 µM) was 74.1%, the viability, T/C (second compound 0.1 µM, first compound 0.003 µM) was 86.4% and the viability, T/C (second compound 0.1 µM, first compound 0.00949 µM) was 70.2%. For the same compound, the viability, T/C (second compound 0.1 µM, first compound 0.03 µM) was 44.9%, the viability, T/C (second compound 0.1 µM, first compound 0.0949 µM) was 39.4% and the viability, T/C (second compound 0.1 µM, first compound 0.3 µM) was 31.7%. It also gave a viability, T/C (second compound 0.316 µM, first compound 0.000949 µM) of 72.8%, a viability, T/C (second compound 0.316 µM, first compound 0.003 µM) of 74.9% and a viability, T/C (second compound 0.316 µM, first compound 0.00949 µM) of 53%. For the same compound, the viability, T/C (second compound 0.316 µM, first compound 0.03 µM) was 45%, the viability, T/C (second compound 0.316 µM, first compound 0.0949 µM) was 35.4% and the viability, T/C (second compound 0.316 µM, first compound 0.3 µM) was 36%. It also gave a viability, T/C (second compound 1 µM, first compound 0.000949 µM) of 59.3%, a viability, T/C (second compound 1 µM, first compound 0.003 µM) of 66% and a viability, T/C (second compound 1 µM, first compound 0.00949 µM) of 44.3%. It also gave a viability, T/C (second compound 1 µM, first compound 0.03 µM) of 36%, a viability, T/C (second compound 1 µM, first compound 0.0949 µM) of 29.5% and a viability, T/C (second compound 1 µM, first compound 0.3 µM) of 30.8%. For the same compound, the viability, T/C (second compound 3.16 µM, first compound 0.000949 µM) was 56.3%, the viability, T/C (second compound 3.16 µM, first compound 0.003 µM) was 50.6% and the viability, T/C (second compound 3.16 µM, first compound 0.00949 µM) was 40.8%. It also gave a viability, T/C (second compound 3.16 µM, first compound 0.03 µM) of 32.7%, a viability, T/C (second compound 3.16 µM, first compound 0.0949 µM) of 31.5% and a viability, T/C (second compound 3.16 µM, first compound 0.3 µM) of 30.4%. The viability, T/C (second compound 10 µM, first compound 0.000949 µM) was 58.6%, the viability, T/C (second compound 10 µM, first compound 0.003 µM) was 52.5% and the viability, T/C (second compound 10 µM, first compound 0.00949 µM) was 38.3%. It also gave a viability, T/C (second compound 10 µM, first compound 0.03 µM) of 41%, a viability, T/C (second compound 10 µM, first compound 0.0949 µM) of 29.2% and a viability, T/C (second compound 10 µM, first compound 0.3 µM) of 22.8%.
For `Nc1ccn(C2OC(CO)C(O)C2(F)F)c(=O)n1` (stereo unspecified) + C#Cc1c(F)ccc2cc(O)cc(-c3ncc4c(N5CC6CCC(C5)N6)nc(OCC56CCCN5CC(F)C6)nc4c3F)c12, the IC50 (second compound 0.0316 µM) was 86 nM, the IC50 (second compound 0.1 µM) was 201 nM and the IC50 (second compound 0.316 µM) was 180 nM. The IC50 (second compound 1 µM) was 10.2 nM, the IC50 (second compound 3.16 µM) was 3.16 nM and the IC50 (second compound 10 µM) was less than 3.16 nM. The viability, T/C [1] was 84.9%, the viability, T/C [2] was 105% and the viability, T/C [3] was 71.6%. It also gave a viability, T/C [4] of 48.5%, a viability, T/C [5] of 41.8% and a viability, T/C [6] of 30.9%. For the same compound, the viability, T/C [7] was 75.7%, the viability, T/C [8] was 88.7% and the viability, T/C [9] was 70.6%. It also gave a viability, T/C [10] of 54.7%, a viability, T/C [11] of 51.6% and a viability, T/C [12] of 39.8%. For the same compound, the viability, T/C [13] was 64%, the viability, T/C [14] was 71.1% and the viability, T/C [15] was 49.4%. For the same compound, the viability, T/C [16] was 52.1%, the viability, T/C [17] was 49.8% and the viability, T/C [18] was 44%. For the same compound, the viability, T/C [19] was 56.2%, the viability, T/C [20] was 55.5% and the viability, T/C [21] was 40.8%. The viability, T/C [22] was 41.4%, the viability, T/C [23] was 45.7% and the viability, T/C [24] was 41.9%. It also gave a viability, T/C [25] of 38.6%, a viability, T/C [26] of 55.4% and a viability, T/C [27] of 50.8%. For the same compound, the viability, T/C [28] was 36.5%, the viability, T/C [29] was 39% and the viability, T/C [30] was 36.2%. The viability, T/C [31] was 42.3%, the viability, T/C [32] was 53.9% and the viability, T/C [33] was 48.9%. For the same compound, the viability, T/C [34] was 38.3%, the viability, T/C [35] was 34.1% and the viability, T/C [36] was 30.7%.
For `C=CC(=O)Nc1cc(Nc2nccc(-c3cn(C)c4ccccc34)n2)c(OC)cc1N(C)CCN(C)C` + C#Cc1c(F)ccc2cc(O)cc(-c3ncc4c(N5CC6CCC(C5)N6)nc(OCC56CCCN5CC(F)C6)nc4c3F)c12, the IC50 (second compound 0.0316 µM) was 114 nM, the IC50 (second compound 0.1 µM) was 70.8 nM and the IC50 (second compound 0.316 µM) was 88.1 nM. The IC50 (second compound 1 µM) was 25.2 nM, the IC50 (second compound 3.16 µM) was 22.2 nM and the IC50 (second compound 10 µM) was 16.1 nM. For the same compound, the viability, T/C [1] was 81.2%, the viability, T/C [2] was 115% and the viability, T/C [3] was 80.8%. The viability, T/C [4] was 52.9%, the viability, T/C [5] was 43.1% and the viability, T/C [6] was 37.9%. For the same compound, the viability, T/C [7] was 80.3%, the viability, T/C [8] was 85.2% and the viability, T/C [9] was 60.7%. It also gave a viability, T/C [10] of 46.9%, a viability, T/C [11] of 41.3% and a viability, T/C [12] of 35.2%. For the same compound, the viability, T/C [13] was 77.6%, the viability, T/C [14] was 75.2% and the viability, T/C [15] was 66%. The viability, T/C [16] was 47.1%, the viability, T/C [17] was 40.7% and the viability, T/C [18] was 35.3%. It also gave a viability, T/C [19] of 68.3%, a viability, T/C [20] of 60.2% and a viability, T/C [21] of 46.7%. For the same compound, the viability, T/C [22] was 42.1%, the viability, T/C [23] was 36.4% and the viability, T/C [24] was 38.5%. For the same compound, the viability, T/C [25] was 60.2%, the viability, T/C [26] was 58.6% and the viability, T/C [27] was 48%. It also gave a viability, T/C [28] of 41%, a viability, T/C [29] of 36.1% and a viability, T/C [30] of 37.7%. The viability, T/C [31] was 57.1%, the viability, T/C [32] was 57.1% and the viability, T/C [33] was 44.6%. For the same compound, the viability, T/C [34] was 40.1%, the viability, T/C [35] was 39.8% and the viability, T/C [36] was 36.7%.
